# Source: ChEMBL document CHEMBL1127949, “GR159897 and related analogues as highly potent, orally active non-peptide neurokinin NK2 receptor antagonists” (Bioorg Med Chem Lett, 1994)
# Assays:
# [1] = biological target: T1, Substance-K receptor (Cavia porcellus) (UniProt Q64077)
# T1 sequence (whole entry): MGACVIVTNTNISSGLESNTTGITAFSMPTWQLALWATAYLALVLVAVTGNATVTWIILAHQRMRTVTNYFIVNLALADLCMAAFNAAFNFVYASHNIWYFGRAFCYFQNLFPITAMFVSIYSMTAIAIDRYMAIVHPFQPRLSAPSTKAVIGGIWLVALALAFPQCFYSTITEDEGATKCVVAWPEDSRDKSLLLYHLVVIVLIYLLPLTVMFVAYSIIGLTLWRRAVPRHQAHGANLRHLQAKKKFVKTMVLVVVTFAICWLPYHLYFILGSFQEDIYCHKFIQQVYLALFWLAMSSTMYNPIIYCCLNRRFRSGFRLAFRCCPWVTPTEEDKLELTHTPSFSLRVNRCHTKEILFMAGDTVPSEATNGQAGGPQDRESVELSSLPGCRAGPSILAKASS
# Description: Binding affinity against NK2 receptor in guinea-pig trachea
# Substance-K receptor [2] = biological target: T2, Substance-K receptor (Rattus norvegicus, UniProt P16610); assay: Binding affinity by displacement of radiolabeled GR-100679 from Tachykinin receptor 2 from homogenized rat colon
# T2 sequence (P16610 whole entry): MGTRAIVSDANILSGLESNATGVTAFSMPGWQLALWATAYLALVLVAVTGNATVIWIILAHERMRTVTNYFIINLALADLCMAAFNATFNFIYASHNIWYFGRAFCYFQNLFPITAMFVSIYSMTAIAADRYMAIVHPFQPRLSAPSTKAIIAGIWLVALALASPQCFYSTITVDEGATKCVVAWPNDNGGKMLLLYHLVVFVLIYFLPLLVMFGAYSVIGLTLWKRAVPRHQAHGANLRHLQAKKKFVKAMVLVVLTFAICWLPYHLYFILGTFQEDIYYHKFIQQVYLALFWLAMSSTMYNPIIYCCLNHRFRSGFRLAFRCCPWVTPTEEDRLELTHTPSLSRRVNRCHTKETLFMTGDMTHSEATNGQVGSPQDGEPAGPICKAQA
# Cavia porcellus = assay: In vivo ability to inhibit bronchoconstriction induced by GR-64349 (i.v.) in guinea pigs; format: functional
# Neuromedin-K receptor = biological target: T3, Neuromedin-K receptor (Cavia porcellus, UniProt P30098); assay: Tested for inhibition of binding of [3H]senktide to Tachykinin receptor 3 in guinea pig cerebral cortex membranes; format: tissue-based, Membrane
# T3 sequence (P30098 whole entry): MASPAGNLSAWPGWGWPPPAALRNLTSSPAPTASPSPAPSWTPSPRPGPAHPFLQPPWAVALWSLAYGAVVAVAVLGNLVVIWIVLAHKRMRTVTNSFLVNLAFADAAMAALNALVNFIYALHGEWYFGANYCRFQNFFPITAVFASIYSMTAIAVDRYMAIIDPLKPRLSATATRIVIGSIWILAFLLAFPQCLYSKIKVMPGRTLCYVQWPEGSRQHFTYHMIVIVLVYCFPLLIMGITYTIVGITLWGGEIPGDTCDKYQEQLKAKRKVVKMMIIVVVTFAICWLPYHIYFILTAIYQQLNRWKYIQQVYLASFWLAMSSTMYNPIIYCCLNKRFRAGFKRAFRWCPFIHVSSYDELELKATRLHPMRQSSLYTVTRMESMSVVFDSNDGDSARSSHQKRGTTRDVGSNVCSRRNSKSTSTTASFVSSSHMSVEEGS
# [3] = biological target: T1, Substance-K receptor (Cavia porcellus); assay: Binding affinity against Tachykinin receptor 2 in guinea-pig trachea
# Substance-K receptor [4] = biological target: T4, Substance-K receptor (Homo sapiens, UniProt P21452); assay: Binding affinity against Tachykinin receptor 2 of human expressed in chinese hamster ovary cells; format: cell-based, CHO
# T4 sequence (P21452 whole entry): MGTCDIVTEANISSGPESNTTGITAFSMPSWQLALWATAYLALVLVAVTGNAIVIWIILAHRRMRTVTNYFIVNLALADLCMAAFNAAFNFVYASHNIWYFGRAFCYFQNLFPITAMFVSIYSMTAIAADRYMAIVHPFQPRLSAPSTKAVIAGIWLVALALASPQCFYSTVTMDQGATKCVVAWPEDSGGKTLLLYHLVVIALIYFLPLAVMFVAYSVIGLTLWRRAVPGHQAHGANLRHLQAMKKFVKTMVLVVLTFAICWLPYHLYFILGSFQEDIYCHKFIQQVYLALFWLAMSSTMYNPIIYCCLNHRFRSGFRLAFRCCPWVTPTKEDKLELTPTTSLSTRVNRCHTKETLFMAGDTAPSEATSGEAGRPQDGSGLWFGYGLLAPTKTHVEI
SMILES,Ki (Substance-K receptor [2]),also measured
[O-][S@+](CC1(O)CCN(CCc2c[nH]c3ccc(F)cc23)CC1)c1ccccc1 (stereo in doubt; 8) [listing 1 of 2 here],,pKB [1]: 8.7
[O-][S+](CC1(O)CCN(CCc2c[nH]c3ccc(F)cc23)CC1)c1ccccc1 (stereo in doubt; 6) [4-BENZENESULFINYLMETHYL-1-[2-(5-FLUORO-1H-INDOL-3-YL)-ETHYL]-PIPERIDIN-4-OL (STRUCTURAL MIX)],0.501 nM,
O=S(=O)(CC1(O)CCN(CCc2c[nH]c3ccc(F)cc23)CC1)c1ccccc1,31.6 nM,
[O-][S@+](CC1(O)CCN(CCc2c[nH]c3ccc(F)cc23)CC1)c1ccccc1 (stereo in doubt; 5),3.98 nM,Dose (Cavia porcellus): 3 µM/kg
Cc1ccccc1OCC(O)CNCCc1c[nH]c2ccc(F)cc12 (stereo unspecified),1000 nM,
[O-][S+](CC1(O)CCN(CCc2c[nH]c3ccc(F)cc23)CC1)c1ccccc1 (stereo in doubt; 9) [4-BENZENESULFINYLMETHYL-1-[2-(5-FLUORO-1H-INDOL-3-YL)-ETHYL]-PIPERIDIN-4-OL (STRUCTURAL MIX)],7.94 nM,
Cc1ccccc1OCC1(O)CCN(CCc2c[nH]c3ccc(F)cc23)CC1,31.6 nM,
COC1(C[S@@+]([O-])c2ccccc2)CCN(CCc2c[nH]c3ccc(F)cc23)CC1,0.1 nM,Dose (Cavia porcellus): 3 µM/kg; Ki (Neuromedin-K receptor): 20000 nM; pKB [3]: 9.7; Ki (Substance-K receptor [4]): 0.316 nM
N#Cc1ccc2[nH]cc(CCN3CCC(NC(=O)c4ccccc4)CC3)c2c1,1580 nM,
[O-][S@+](CC1(O)CCN(CCc2c[nH]c3ccc(F)cc23)CC1)c1ccccc1 (stereo in doubt; 8) [listing 2 of 2 here],0.316 nM,Ki (Neuromedin-K receptor): 39800 nM
